Values after ≈ are worked out from the molar mass of the structure shown.
Legend:
Assay in all cases: In vitro antibacterial evaluation: minimum inhibitory concentration (MIC), broth dilution method
Type in all cases: cell-based
Staphylococcus sp. = system: Staphylococcus sp.
Summary of the method: (§1)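 MIC by broth dilution in Mueller-Hinton II medium following NCCLS M7-A2. Inoculum was 5×10^5 CFU/mL and antibiotic was tested over 64-0.06 μg/mL. Gram-positive panel included clinical isolates resistant to methicillin, penicillin and/or vancomycin.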

Enterococcus sp. = details: 18 hours at 35° C.
Summary of the method: as §1

Streptococcus sp. = details: 18 hours at 35° C.
Summary of the method: as §1

Escherichia coli = details: 18 hours at 35° C.
Summary of the method: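 NCCLS M7-A2 broth dilution; Muller-Hinton II […]; 5×10^5 CFU/mL; 64-0.06 μg/mL. MIC = lowest concentration with no growth.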

[1] = broth dilution, inoculum 5×10^5 CFU/mL

## CC(c1ccccc1)C1NC(=O)CNC(=O)C(CO)NC(=O)C(C(O)C2CNC(=N)N2C2OC(CO)C(O)C(O)C2O)NC(=O)C(C(O)C2CNC(=N)N2)NC(=O)C(Cc2ccc(OC3OC(CO)C(OC4OC(CO)C(O)C5OC6(CCCCCCCCCCCC6)OC45)C(O)C3O)cc2)NC1=O (stereo not drawn) [Example 210a, Cyclo[glycyl-β-methylphenylalanyl-O-[4-O-(2,3-O-cyclotridecylidenehexopyranosyl)hexopyranosyl]tyrosyl-3-(2-iminoimidazolidin-4-yl)seryl-3-(3-hexopyranosyl-2-iminoimidazolidin-4-yl)serylseryl]]
Staphylococcus sp.; strain ATCC 29213
  MIC Staphylococcus aureus (ATCC 29213): 4 µg/mL (≈ 2.71 µM)
Staphylococcus sp.; strain GC 1131
  MIC Staphylococcus aureus (GC 1131): 4 µg/mL (≈ 2.71 µM)
Staphylococcus sp.; strain GC 3051
  MIC Staphylococcus aureus (GC 3051): 8 µg/mL (≈ 5.43 µM)
Staphylococcus sp.; strain GC 3053
  MIC Staphylococcus aureus (GC 3053): 4 µg/mL (≈ 2.71 µM)
Staphylococcus sp.; strain GC 4541
  MIC Staphylococcus aureus (GC 4541): 4 µg/mL (≈ 2.71 µM)
Staphylococcus sp.; strain GC 4542
  MIC Staphylococcus aureus (GC 4542): 8 µg/mL (≈ 5.43 µM)
Staphylococcus sp.; strain GC 4543
  MIC Staphylococcus aureus-SMITH (GC 4543): 4 µg/mL (≈ 2.71 µM)
Staphylococcus sp.; strain GC 4544
  MIC Staphylococcus aureus (GC 4544): 8 µg/mL (≈ 5.43 µM)
Staphylococcus sp.; strain GC 4545
  MIC Staphylococcus aureus (GC 4545): 4 µg/mL (≈ 2.71 µM)
Staphylococcus sp.; strain GC 4546
  MIC Staphylococcus haemolyticus (GC 4546): 8 µg/mL (≈ 5.43 µM)
Staphylococcus sp.; strain GC 4547
  MIC Coagulase Negative Staphylococcus (GC 4547): 4 µg/mL (≈ 2.71 µM)
Staphylococcus sp.; strain GC 4548
  MIC Coagulase Negative Staphylococcus (GC 4548): 4 µg/mL (≈ 2.71 µM)
Staphylococcus sp.; strain GC 4549
  MIC Coagulase Negative Staphylococcus (GC 4549): 2 µg/mL (≈ 1.36 µM)
Staphylococcus sp.; strain GC 4551
  MIC Coagulase Negative Staphylococcus (GC 4551): 4 µg/mL (≈ 2.71 µM)
Staphylococcus sp.; strain GC 6257
  MIC Coagulase Negative Staphylococcus (GC 6257): 4 µg/mL (≈ 2.71 µM)
Enterococcus sp.; Enterococcus avium (GC 4558)
  MIC Enterococcus avium (GC 4558): 4 µg/mL (≈ 2.71 µM)
Enterococcus sp.; Enterococcus faecalis (ATCC 29212)
  MIC Enterococcus faecalis (ATCC 29212): 8 µg/mL (≈ 5.43 µM)
Enterococcus sp.; Enterococcus faecalis (GC 2242)
  MIC Enterococcus faecalis (GC 2242): 8 µg/mL (≈ 5.43 µM)
Enterococcus sp.; Enterococcus faecalis (GC 2691)
  MIC Enterococcus faecalis (GC 2691): 8 µg/mL (≈ 5.43 µM)
Enterococcus sp.; Enterococcus faecalis (GC 3059)
  MIC Enterococcus faecalis (GC 3059): 8 µg/mL (≈ 5.43 µM)
Enterococcus sp.; Enterococcus faecalis (GC 4552)
  MIC Enterococcus faecalis (GC 4552): 8 µg/mL (≈ 5.43 µM)
Enterococcus sp.; Enterococcus faecalis (GC 4553)
  MIC Enterococcus faecalis (GC 4553): 8 µg/mL (≈ 5.43 µM)
Enterococcus sp.; Enterococcus faecalis (GC 4554)
  MIC Enterococcus faecalis (GC 4554): 8 µg/mL (≈ 5.43 µM)
Enterococcus sp.; Enterococcus faecalis (GC 6189)
  MIC Enterococcus faecalis (GC 6189): 8 µg/mL (≈ 5.43 µM)
Enterococcus sp.; Enterococcus faecium (GC 2243)
  MIC Enterococcus faecium (GC 2243): 4 µg/mL (≈ 2.71 µM)
Enterococcus sp.; Enterococcus faecium (GC 4556)
  MIC Enterococcus faecium (GC 4556): 8 µg/mL (≈ 5.43 µM)
Enterococcus sp.; Enterococcus faecium (GC 4557)
  MIC Enterococcus faecium (GC 4557): 4 µg/mL (≈ 2.71 µM)
Enterococcus sp.; [1]
  MIC Enterococcus avium (GC 4558): 4 µg/mL (≈ 2.71 µM)
  MIC Enterococcus faecalis (ATCC 29212): 8 µg/mL (≈ 5.43 µM)
  MIC Enterococcus faecalis (GC 2242): 8 µg/mL (≈ 5.43 µM)
  MIC Enterococcus faecalis (GC 2691): 8 µg/mL (≈ 5.43 µM)
  MIC Enterococcus faecalis (GC 3059): 8 µg/mL (≈ 5.43 µM)
  MIC Enterococcus faecalis (GC 4552): 8 µg/mL (≈ 5.43 µM)
  MIC Enterococcus faecalis (GC 4553): 8 µg/mL (≈ 5.43 µM)
  MIC Enterococcus faecalis (GC 4554): 8 µg/mL (≈ 5.43 µM)
  MIC Enterococcus faecalis (GC 6189): 8 µg/mL (≈ 5.43 µM)
  MIC Enterococcus faecium (GC 2243): 4 µg/mL (≈ 2.71 µM)
  MIC Enterococcus faecium (GC 4556): 8 µg/mL (≈ 5.43 µM)
  MIC Enterococcus faecium (GC 4557): 4 µg/mL (≈ 2.71 µM)
Streptococcus sp.; Streptococcus agalactiae (GC 4564)
  MIC Streptococcus agalactiae (GC 4564): 2 µg/mL (≈ 1.36 µM)
Streptococcus sp.; Streptococcus pneumoniae (ATCC 6301)
  MIC Streptococcus pneumoniae (ATCC 6301): 0.5 µg/mL (≈ 0.339 µM)
Streptococcus sp.; Streptococcus pneumoniae (GC 1894)
  MIC Streptococcus pneumoniae (GC 1894): <0.06 µg/mL
Streptococcus sp.; Streptococcus pneumoniae (GC 4565)
  MIC Streptococcus pneumoniae (GC 4565): 0.25 µg/mL (≈ 0.17 µM)
Streptococcus sp.; Streptococcus pyogenes (GC 4563)
  MIC Streptococcus pyogenes (GC 4563): 1 µg/mL (≈ 0.679 µM)
Streptococcus sp.; [1]
  MIC Streptococcus agalactiae (GC 4564): 2 µg/mL (≈ 1.36 µM)
  MIC Streptococcus pneumoniae (ATCC 6301): 0.5 µg/mL (≈ 0.339 µM)
  MIC Streptococcus pneumoniae (GC 1894): <0.06 µg/mL
  MIC Streptococcus pneumoniae (GC 4565): 0.25 µg/mL (≈ 0.17 µM)
  MIC Streptococcus pyogenes (GC 4563): 1 µg/mL (≈ 0.679 µM)
Escherichia coli; Escherichia coli (ATCC 25922)
  MIC Escherichia coli (ATCC 25922): >64 µg/mL
Escherichia coli; Escherichia coli (GC 4559)
  MIC Escherichia coli (GC 4559): >64 µg/mL
Escherichia coli; Escherichia coli (GC 4560)
  MIC Escherichia coli (GC 4560): 16 µg/mL (≈ 10.9 µM)
